Source: patent US9682995B2, “Amino-substituted isothiazoles” (BAYER PHARMA AKTIENGESELLSCHAFT, priority 2013, dated 2017)

Experiments:
Assay in all cases: Kinase Profiling (KINOMEscan)
Type in all cases: binding
[1] = target: 456 kinases (of these 395 non-mutant kinases) (Homo sapiens, UniProt Q13882); conditions: BRK; 10 μM
[2] = target: 456 kinases (of these 395 non-mutant kinases) (Homo sapiens, UniProt O75676); conditions: 10 μM
[3] = target: 456 kinases (of these 395 non-mutant kinases) (Homo sapiens, UniProt Q52WX2); conditions: SBK1; 10 μM
[4] = target: 456 kinases (of these 395 non-mutant kinases) (Homo sapiens, UniProt Q13153); conditions: PAK1; 10 μM
[5] = target: 456 kinases (of these 395 non-mutant kinases) (Homo sapiens, UniProt Q14680); conditions: MELK; 10 μM
[6] = target: 456 kinases (of these 395 non-mutant kinases) (Homo sapiens, UniProt P53671); conditions: LIMK2; 10 μM
[7] = target: 456 kinases (of these 395 non-mutant kinases) (Homo sapiens, UniProt Q9P0L2); conditions: MARK1; 10 μM
[8] = target: 456 kinases (of these 395 non-mutant kinases) (Homo sapiens, UniProt P51617); conditions: IRAKI; 10 μM
[9] = target: 456 kinases (of these 395 non-mutant kinases) (Homo sapiens, UniProt Q00535); conditions: CDK5; 10 μM
[10] = target: 456 kinases (of these 395 non-mutant kinases) (Homo sapiens, UniProt P48730); conditions: CSNK1D; 10 μM
[11] = target: 456 kinases (of these 395 non-mutant kinases) (Homo sapiens, UniProt P27037); conditions: ACVR2A; 10 μM
[12] = target: 456 kinases (of these 395 non-mutant kinases) (Homo sapiens, UniProt P51817); conditions: PRKX; 10 μM
[13] = target: 456 kinases (of these 395 non-mutant kinases) (Homo sapiens, UniProt P42679); conditions: CTK; 10 μM
[14] = target: 456 kinases (of these 395 non-mutant kinases) (Homo sapiens, UniProt P51956); conditions: NEK3; 10 μM
[15] = target: 456 kinases (of these 395 non-mutant kinases) (Homo sapiens, UniProt P36888, R834Q); conditions: FLT3(R834Q); 10 μM
[16] = target: 456 kinases (of these 395 non-mutant kinases) (Homo sapiens, UniProt P49336); conditions: CDK8; 10 μM
[17] = target: 456 kinases (of these 395 non-mutant kinases) (Homo sapiens, UniProt P29376); conditions: LTK; 10 μM
[18] = target: 456 kinases (of these 395 non-mutant kinases) (Homo sapiens, UniProt Q8N568); conditions: DCAMKL2; 10 μM
[19] = target: 456 kinases (of these 395 non-mutant kinases) (Homo sapiens, UniProt Q16584); conditions: MLK3; 10 μM
[20] = target: 456 kinases (of these 395 non-mutant kinases) (Homo sapiens, UniProt Q9NY57); conditions: YANK2; 10 μM
[21] = target: 456 kinases (of these 395 non-mutant kinases) (Homo sapiens, UniProt Q9NWZ3); conditions: IRAK4; 10 μM
[22] = target: 456 kinases (of these 395 non-mutant kinases) (Homo sapiens, UniProt O75460); conditions: ERN1; 10 μM
[23] = target: 456 kinases (of these 395 non-mutant kinases) (Homo sapiens, UniProt P08069); conditions: IGF1R; 10 μM
[24] = target: 456 kinases (of these 395 non-mutant kinases) (Homo sapiens, UniProt Q14004); conditions: CDC2L5; 10 μM
[25] = target: 456 kinases (of these 395 non-mutant kinases) (Homo sapiens, UniProt P36888, K663Q); conditions: FLT3(K663Q); 10 μM
[26] = target: 456 kinases (of these 395 non-mutant kinases) (Homo sapiens, UniProt O60674); conditions: JAK2(JH1domain-catalytic); 10 μM
[27] = target: 456 kinases (of these 395 non-mutant kinases) (Homo sapiens, UniProt Q9Y2K2); conditions: QSK; 10 μM
[28] = target: 456 kinases (of these 395 non-mutant kinases) (Homo sapiens, UniProt O95835); conditions: LATS1; 10 μM
[29] = target: 456 kinases (of these 395 non-mutant kinases) (Homo sapiens, UniProt Q9Y4K4); conditions: MAP4K5; 10 μM
[30] = target: 456 kinases (of these 395 non-mutant kinases) (Homo sapiens, UniProt Q9NRH2); conditions: SNRK; 10 μM
[31] = target: 456 kinases (of these 395 non-mutant kinases) (Homo sapiens, UniProt Q13470); conditions: TNK1; 10 μM
[32] = target: 456 kinases (of these 395 non-mutant kinases) (Homo sapiens, UniProt Q9UQB9); conditions: AURKC; 10 μM

Sequence of 456 kinases (of these 395 non-mutant kinases) (Homo sapiens, UniProt P29376) (P29376 17-864 limits assumed, change not shown): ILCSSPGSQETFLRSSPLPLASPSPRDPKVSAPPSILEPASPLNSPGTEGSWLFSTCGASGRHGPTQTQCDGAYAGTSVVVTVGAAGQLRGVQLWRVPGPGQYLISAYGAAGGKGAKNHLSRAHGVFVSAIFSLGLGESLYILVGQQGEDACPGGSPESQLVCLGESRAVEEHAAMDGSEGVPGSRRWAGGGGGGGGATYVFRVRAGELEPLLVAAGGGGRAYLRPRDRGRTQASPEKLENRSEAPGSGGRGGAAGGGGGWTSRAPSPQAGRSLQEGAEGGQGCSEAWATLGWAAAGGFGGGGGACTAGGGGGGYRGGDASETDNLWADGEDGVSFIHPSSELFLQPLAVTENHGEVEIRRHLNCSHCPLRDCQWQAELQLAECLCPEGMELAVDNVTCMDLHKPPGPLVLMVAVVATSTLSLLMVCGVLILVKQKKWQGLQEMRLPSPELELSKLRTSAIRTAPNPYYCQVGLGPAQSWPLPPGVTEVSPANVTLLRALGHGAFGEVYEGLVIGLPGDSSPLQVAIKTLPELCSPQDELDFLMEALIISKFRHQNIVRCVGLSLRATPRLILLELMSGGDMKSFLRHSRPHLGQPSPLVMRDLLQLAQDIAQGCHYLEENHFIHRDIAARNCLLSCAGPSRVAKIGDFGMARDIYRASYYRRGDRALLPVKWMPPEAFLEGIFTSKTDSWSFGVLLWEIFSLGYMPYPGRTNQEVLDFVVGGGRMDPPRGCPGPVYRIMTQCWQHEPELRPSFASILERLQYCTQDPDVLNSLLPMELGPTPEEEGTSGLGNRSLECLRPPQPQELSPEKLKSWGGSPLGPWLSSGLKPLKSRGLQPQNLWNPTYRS
Sequence of 456 kinases (of these 395 non-mutant kinases) (Homo sapiens, UniProt P27037) (P27037 20-513 limits assumed, change not shown): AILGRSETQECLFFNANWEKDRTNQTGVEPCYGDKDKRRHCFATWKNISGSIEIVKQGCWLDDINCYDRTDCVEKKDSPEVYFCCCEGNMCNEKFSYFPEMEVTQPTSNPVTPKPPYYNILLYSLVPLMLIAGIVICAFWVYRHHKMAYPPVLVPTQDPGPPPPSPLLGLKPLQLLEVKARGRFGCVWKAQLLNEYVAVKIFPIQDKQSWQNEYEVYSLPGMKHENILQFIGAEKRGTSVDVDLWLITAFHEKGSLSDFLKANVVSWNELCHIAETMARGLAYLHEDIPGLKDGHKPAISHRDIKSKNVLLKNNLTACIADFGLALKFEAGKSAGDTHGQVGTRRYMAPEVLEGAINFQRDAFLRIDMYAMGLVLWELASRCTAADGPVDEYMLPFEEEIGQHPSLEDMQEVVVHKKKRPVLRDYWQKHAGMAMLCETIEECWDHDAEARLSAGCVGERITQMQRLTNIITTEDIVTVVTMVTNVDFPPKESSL
Sequence of 456 kinases (of these 395 non-mutant kinases) (Homo sapiens, UniProt O75460) (O75460 19-977 limits assumed, change not shown): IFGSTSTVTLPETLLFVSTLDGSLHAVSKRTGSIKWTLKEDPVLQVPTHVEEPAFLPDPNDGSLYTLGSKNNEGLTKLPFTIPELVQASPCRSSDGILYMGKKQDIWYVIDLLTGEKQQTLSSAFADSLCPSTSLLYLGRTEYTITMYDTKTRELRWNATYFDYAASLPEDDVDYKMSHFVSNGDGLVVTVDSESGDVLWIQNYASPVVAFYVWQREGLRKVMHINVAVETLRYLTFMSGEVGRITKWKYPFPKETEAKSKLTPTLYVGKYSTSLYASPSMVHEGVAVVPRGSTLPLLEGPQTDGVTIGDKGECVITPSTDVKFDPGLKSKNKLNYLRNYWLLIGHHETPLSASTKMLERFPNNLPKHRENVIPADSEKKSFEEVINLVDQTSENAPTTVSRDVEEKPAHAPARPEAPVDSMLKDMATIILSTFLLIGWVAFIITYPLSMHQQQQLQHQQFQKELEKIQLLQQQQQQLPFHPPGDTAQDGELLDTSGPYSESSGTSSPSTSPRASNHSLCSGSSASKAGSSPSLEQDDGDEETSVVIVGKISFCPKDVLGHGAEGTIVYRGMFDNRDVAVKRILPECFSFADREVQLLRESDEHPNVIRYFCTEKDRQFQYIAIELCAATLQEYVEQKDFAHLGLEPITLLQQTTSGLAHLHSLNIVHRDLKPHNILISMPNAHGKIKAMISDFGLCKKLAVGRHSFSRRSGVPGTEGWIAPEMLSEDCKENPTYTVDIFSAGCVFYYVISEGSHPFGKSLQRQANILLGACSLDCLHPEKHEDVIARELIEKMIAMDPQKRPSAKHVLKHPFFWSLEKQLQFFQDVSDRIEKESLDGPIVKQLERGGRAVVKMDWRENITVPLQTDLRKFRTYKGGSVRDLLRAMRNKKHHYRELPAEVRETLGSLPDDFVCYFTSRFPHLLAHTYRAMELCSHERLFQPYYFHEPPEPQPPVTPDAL
Sequence of 456 kinases (of these 395 non-mutant kinases) (Homo sapiens, UniProt Q13153) (Q13153 2-545 limits assumed, change not shown): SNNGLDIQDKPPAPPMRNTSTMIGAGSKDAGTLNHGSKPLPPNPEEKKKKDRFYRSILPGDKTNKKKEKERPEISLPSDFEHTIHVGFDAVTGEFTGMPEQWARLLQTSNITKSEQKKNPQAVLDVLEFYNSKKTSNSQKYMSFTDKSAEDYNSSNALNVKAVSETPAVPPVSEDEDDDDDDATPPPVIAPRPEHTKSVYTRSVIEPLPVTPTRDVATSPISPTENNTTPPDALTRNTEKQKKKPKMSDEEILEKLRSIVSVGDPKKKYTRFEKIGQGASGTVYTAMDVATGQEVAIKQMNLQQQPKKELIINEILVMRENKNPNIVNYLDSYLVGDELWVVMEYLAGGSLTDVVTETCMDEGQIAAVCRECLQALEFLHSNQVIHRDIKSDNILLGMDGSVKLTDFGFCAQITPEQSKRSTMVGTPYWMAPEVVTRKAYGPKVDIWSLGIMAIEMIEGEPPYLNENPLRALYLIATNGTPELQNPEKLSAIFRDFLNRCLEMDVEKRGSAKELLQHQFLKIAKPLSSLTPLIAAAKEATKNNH

`CCc1ccccc1NC(=O)c1c(C)nsc1Nc1cnc2cc(F)ccc2n1` [Example 20, N-(2-Ethylphenyl)-5-[(6-fluoroquinoxalin-2-yl)amino]-3-methyl-1,2-thiazole-4-carboxamide] was tested, and the “% Ctrl @ 10 μM” value [1] was 55 % Ctrl, the “% Ctrl @ 10 μM” value ([2]; RPS6KA4(Kin.Dom.1-N-terminal)) was 93 % Ctrl and the “% Ctrl @ 10 μM” value ([2]; RPS6KA4(Kin.Dom.2-C-terminal)) was 88 % Ctrl. For the same compound, the “% Ctrl @ 10 μM” value [3] was 91 % Ctrl, the “% Ctrl @ 10 μM” value [4] was 100 % Ctrl and the “% Ctrl @ 10 μM” value [5] was 100 % Ctrl. The “% Ctrl @ 10 μM” value [6] was 94 % Ctrl, the “% Ctrl @ 10 μM” value [7] was 97 % Ctrl and the “% Ctrl @ 10 μM” value [8] was 100 % Ctrl. The “% Ctrl @ 10 μM” value [9] was 100 % Ctrl, the “% Ctrl @ 10 μM” value [10] was 86 % Ctrl and the “% Ctrl @ 10 μM” value [11] was 94 % Ctrl. For the same compound, the “% Ctrl @ 10 μM” value [12] was 75 % Ctrl, the “% Ctrl @ 10 μM” value [13] was 61 % Ctrl and the “% Ctrl @ 10 μM” value [14] was 97 % Ctrl. The “% Ctrl @ 10 μM” value [15] was 93 % Ctrl, the “% Ctrl @ 10 μM” value [16] was 100 % Ctrl and the “% Ctrl @ 10 μM” value [17] was 68 % Ctrl. The “% Ctrl @ 10 μM” value [18] was 98 % Ctrl, the “% Ctrl @ 10 μM” value [19] was 90 % Ctrl and the “% Ctrl @ 10 μM” value [20] was 100 % Ctrl. The “% Ctrl @ 10 μM” value [21] was 100 % Ctrl, the “% Ctrl @ 10 μM” value [22] was 100 % Ctrl and the “% Ctrl @ 10 μM” value [23] was 100 % Ctrl. The “% Ctrl @ 10 μM” value [24] was 100 % Ctrl, the “% Ctrl @ 10 μM” value [25] was 75 % Ctrl and the “% Ctrl @ 10 μM” value [26] was 100 % Ctrl. The “% Ctrl @ 10 μM” value [27] was 91 % Ctrl, the “% Ctrl @ 10 μM” value [28] was 100 % Ctrl and the “% Ctrl @ 10 μM” value [29] was 89 % Ctrl. For the same compound, the “% Ctrl @ 10 μM” value [30] was 100 % Ctrl, the “% Ctrl @ 10 μM” value [31] was 86 % Ctrl and the “% Ctrl @ 10 μM” value [32] was 73 % Ctrl.
